Laboratory results published in PMC9506587 (Toxins, 2022).

Legend:
[1] = system: recombinant protein USTB-05-C (MlrC); test: in vitro; settings: Sphingopyxis sp. USTB-05, isolated enzyme, pH 7.3
[2] = system: recombinant protein USTB-05-C (MlrC); settings: pH 7.3

C/C=C(/C(=O)N[C@@H](C(=O)O)[C@H](C)C(=O)N[C@@H](CCCNC(=N)N)C(=O)O)N(C)C(=O)CC[C@@H](NC(=O)[C@@H](C)[C@@H](N)/C=C/C(C)=C/[C@H](C)[C@H](Cc1ccccc1)OC)C(=O)O [linear NOD] was tested, and the metabolised at 4 h [1] was about 98.7% and the “time to complete removal (degradation) of linear NOD by purified MlrC” value [2] was at most 6 h.
